Patent US6376666B1 (Nauchno-Issledovatelsky Institut Farmakologii Rossiiskoi …, priority 1994, dated 2002)

Assays:
Assay type in all cases: in vivo
Balb/c mice = test: open-field test, Balb/c mice (passive type of emotional-stress reaction); design: key to Total activity: sum of all locomotor activity counts (crossings + rearings) in 3 min; details: for Central activity (crossings) / Number of defecations / Peripheral activity (crossings) / Total activity / Vertical activity (rearings): M ± mx; for effect on the behavior (locomotor activity) of Balb/c mice in open-field test, in words: i.p., screening
Text: (§1) The main point of this approach consists in comparative analysis of the behavioural effects of tested compounds in two inbred strains of mice Balb/c and C57B1/6 with different hereditary types of emotional-stress reactions (ESR). The anxiolytic effect was estimated as the activation of the locomotor activity of animals with “passive” type of ESR (Balb/c mice). The main index describing the sedative properties of tested drugs was the inhibition of the locomotor activity of mice with “active” type of ESR (C57B1/6 strain). The anxioselectivity was evaluated according to coincidence of doses range which activated or inhibited the behavior of mice of different strains. Earlier this approach has been successfully used for estimation of anxioselective activity of such known drugs as phenazepam [Seredenin S. B. et al., Bull.Exp.Biol.Med., 1979, v.88, N7, p.38; Seredenin S. B. et al., Ann.Inst.Super.Sanita, 1990, v.26, N1, p.81-88], mexidol [Seredenin S. B. et al., Khimiko-Farmatsevt.Zhurnal, 1987, N2, p.134; Vironina T. A., Seredenin S. B., Ann.Inst.Super.Sanita, 1988, v.24, N3, p.461-466] and gidazepam [Seredenin S. B. et al., in: “Gidazepam” Kiev, Naukova Dumka, 1992, p.92; Seredenin S. B., Blednov Yu. A., Phys.Chem.Biol.Med., 1993, v.1, N1, p.53-60].
(§2) Male C57B1/6 and Balb/c mice (“Stolbovaya” animal farm), weighing 20-22 g were used. The animals were housed in a separate animal room in groups of ten and maintained on 12 h light-dark cycle (light from 8.00 till 20.00) with free access to standard food and water during two weeks before experiment. Testing was performed between 9.00 and 13.00. Every used compound was administered intraperitoneally in water solutions 30 min before testing (0,1 ml solution per 10 g of weight). The “open-field” apparatus consisted of cylinder closed from one end, illuminated by four 75 W lamps fixed to the walls 100 cm above the floor. The “open-field” apparatus was 100 cm in diameter and white-painted; the floor was marked with 3 black circles and some radial lines divided the floor into 16 peripheral and 8 central segments. 30 min after injection each animal was placed in the same peripheral square on the floor for 3 min of testing after 1 min exposure in the dark chamber. The following behavior variables were recorded: 1) the number of crossings in the peripheral area (peripheral activity); 2) the number of crossings in the central segments (central activity); 3) the number of rearings (vertical activity); 4) the emotionality was measured as the number of defecations during the test. The sum of all types of locomotor activity was marked as total activity. The t-Student test was used for statistical analysis.

C57B1/6 mice = test: open-field test, C57B1/6 mice (active type of emotional-stress reaction); design: key to Total activity: sum of all locomotor activity counts (crossings + rearings) in 3 min; details: for Central activity (crossings) / Peripheral activity (crossings) / Total activity / Vertical activity (rearings): M ± mx; for effect on locomotor activity of C57B1/6 mice in open-field test, in words: i.p., doses that activate Balb/c mice
Text: as §1, §2

cats = test: hemodynamics and activity of intact heart in cats under anesthesia; details: cats i.v.; for effect on heart rate, in words: doses of 0,5 mg/kg-2,0 mg/kg
Description: The effects of compounds on the hemodynamics and activity of intact heart were studied in cats under anesthesia. The experiments were carried out under conditions of open chest. The phase curve of aortic blood flow was the main index of cardiac activity. The compounds were administered i.v. in physiological solution. The t-Student' test was used to estimate the statistical significance.

C=CCSc1nc2cc(C)c(C)cc2[nH]1 [III, 2-Allylthio-5,6-dimethylbenzimidazole]
Central activity (crossings) (Balb/c mice; 0.1 mg/kg i.p.): 3.3 ± 2.0
Number of defecations (Balb/c mice; 0.1 mg/kg i.p.): 2.5 ± 0.9
Peripheral activity (crossings) (Balb/c mice; 0.1 mg/kg i.p.): 28.1 ± 5.8
Total activity (Balb/c mice; 0.1 mg/kg i.p.): 32.1 ± 7.9
Vertical activity (rearings) (Balb/c mice; 0.1 mg/kg i.p.): 0.6 ± 0.4
Central activity (crossings) (Balb/c mice; 1.0 mg/kg i.p.): 0.6 ± 0.3
Number of defecations (Balb/c mice; 1.0 mg/kg i.p.): 2.5 ± 0.7
Peripheral activity (crossings) (Balb/c mice; 1.0 mg/kg i.p.): 35.8 ± 6.1
Total activity (Balb/c mice; 1.0 mg/kg i.p.): 36.4 ± 6.4
Central activity (crossings) (Balb/c mice; 5.0 mg/kg i.p.): 0.3 ± 0.3
Number of defecations (Balb/c mice; 5.0 mg/kg i.p.): 3.0 ± 0.7
Peripheral activity (crossings) (Balb/c mice; 5.0 mg/kg i.p.): 46.8 ± 9.9
Total activity (Balb/c mice; 5.0 mg/kg i.p.): 47.5 ± 10.3
Vertical activity (rearings) (Balb/c mice; 5.0 mg/kg i.p.): 0.4 ± 0.3
Central activity (crossings) (Balb/c mice; 10.0 mg/kg i.p.): 3.3 ± 2.1
Number of defecations (Balb/c mice; 10.0 mg/kg i.p.): 2.0 ± 0.7
Peripheral activity (crossings) (Balb/c mice; 10.0 mg/kg i.p.): 56.1 ± 12.2
Total activity (Balb/c mice; 10.0 mg/kg i.p.): 59.4 ± 13.8
Number of defecations (Balb/c mice; 20.0 mg/kg i.p.): 1.5 ± 0.7
Peripheral activity (crossings) (Balb/c mice; 20.0 mg/kg i.p.): 24.0 ± 11.5
Total activity (Balb/c mice; 20.0 mg/kg i.p.): 24.1 ± 11.5
effect on the behavior (locomotor activity) of Balb/c mice in open-field test, in words (Balb/c mice): able to activate the behavior of Balb/c mice
Central activity (crossings) (C57B1/6 mice; 0.1 mg/kg i.p.): 42.1 ± 4.8
Peripheral activity (crossings) (C57B1/6 mice; 0.1 mg/kg i.p.): 109.4 ± 8.3
Total activity (C57B1/6 mice; 0.1 mg/kg i.p.): 170.9 ± 10.0
Vertical activity (rearings) (C57B1/6 mice; 0.1 mg/kg i.p.): 19.4 ± 3.4
Central activity (crossings) (C57B1/6 mice; 0.5 mg/kg i.p.): 42.1 ± 7.5
Peripheral activity (crossings) (C57B1/6 mice; 0.5 mg/kg i.p.): 118.4 ± 9.0
Total activity (C57B1/6 mice; 0.5 mg/kg i.p.): 184.6 ± 8.6
Vertical activity (rearings) (C57B1/6 mice; 0.5 mg/kg i.p.): 22.6 ± 2.0
Central activity (crossings) (C57B1/6 mice; 1.0 mg/kg i.p.): 35.9 ± 7.6
Peripheral activity (crossings) (C57B1/6 mice; 1.0 mg/kg i.p.): 107.8 ± 7.4
Total activity (C57B1/6 mice; 1.0 mg/kg i.p.): 165.9 ± 13.5
Vertical activity (rearings) (C57B1/6 mice; 1.0 mg/kg i.p.): 22.3 ± 3.8
Central activity (crossings) (C57B1/6 mice; 5.0 mg/kg i.p.): 28.8 ± 6.9
Peripheral activity (crossings) (C57B1/6 mice; 5.0 mg/kg i.p.): 130.8 ± 16.8
Total activity (C57B1/6 mice; 5.0 mg/kg i.p.): 177.8 ± 20.7
Vertical activity (rearings) (C57B1/6 mice; 5.0 mg/kg i.p.): 18.6 ± 2.7
Central activity (crossings) (C57B1/6 mice; 10.0 mg/kg i.p.): 23.6 ± 5.3
Peripheral activity (crossings) (C57B1/6 mice; 10.0 mg/kg i.p.): 118.0 ± 7.9
Total activity (C57B1/6 mice; 10.0 mg/kg i.p.): 154.4 ± 13.3
Vertical activity (rearings) (C57B1/6 mice; 10.0 mg/kg i.p.): 12.9 ± 1.8
Central activity (crossings) (C57B1/6 mice; 50.0 mg/kg i.p.): 24.0 ± 2.7
Peripheral activity (crossings) (C57B1/6 mice; 50.0 mg/kg i.p.): 105.2 ± 11.9
Total activity (C57B1/6 mice; 50.0 mg/kg i.p.): 141.3 ± 11.7
Vertical activity (rearings) (C57B1/6 mice; 50.0 mg/kg i.p.): 12.1 ± 1.3
effect on locomotor activity of C57B1/6 mice in open-field test, in words (C57B1/6 mice): without any changes in locomotor activity

CCOc1ccc2nc(SCCN(CC)CC)[nH]c2c1 [VI, 2-2-[(Diethylamino)ethylthio]-5-ethoxybenzo-imidazole]
effect on heart rate, in words (cats): small and short bradycardia
Peripheral activity (crossings) (Balb/c mice; 0.1 mg/kg i.p., 0.1 mg/kg): 3.0 ± 1.8
Total activity (Balb/c mice; 0.1 mg/kg i.p., 0.1 mg/kg): 3.0 ± 1.8
Vertical activity (rearings) (Balb/c mice; 1.0 mg/kg i.p.): 0.4 ± 0.4
Peripheral activity (crossings) (Balb/c mice; 1.0 mg/kg i.p., 1 mg/kg): 3.3 ± 1.3
Total activity (Balb/c mice; 1.0 mg/kg i.p., 1 mg/kg): 3.7 ± 1.7
Peripheral activity (crossings) (Balb/c mice; 10.0 mg/kg i.p., 10 mg/kg): 3.1 ± 0.8
Total activity (Balb/c mice; 10.0 mg/kg i.p., 10 mg/kg): 3.1 ± 0.8
effect on the behavior (locomotor activity) of Balb/c mice in open-field test, in words (Balb/c mice): inhibited the locomotor activity

Cc1cc2nc(SCCN3CCCC3)[nH]c2cc1C [XIII, 2-[2-(Pyrrolidino)ethylthio]-5,6-dimethylbenzimidazole]
Central activity (crossings) (Balb/c mice; 0.5 mg/kg i.p.): 4.3 ± 4.1
Number of defecations (Balb/c mice; 0.5 mg/kg i.p.): 2.9 ± 0.6
Peripheral activity (crossings) (Balb/c mice; 0.5 mg/kg i.p.): 32.0 ± 5.7
Total activity (Balb/c mice; 0.5 mg/kg i.p.): 36.3 ± 9.8
Central activity (crossings) (Balb/c mice; 1.0 mg/kg i.p.): 0.8 ± 0.5
Number of defecations (Balb/c mice; 1.0 mg/kg i.p.): 1.0 ± 0.5
Peripheral activity (crossings) (Balb/c mice; 1.0 mg/kg i.p.): 80.0 ± 11.2
Total activity (Balb/c mice; 1.0 mg/kg i.p.): 80.8 ± 11.7
Number of defecations (Balb/c mice; 5.0 mg/kg i.p.): 1.6 ± 0.7
Peripheral activity (crossings) (Balb/c mice; 5.0 mg/kg i.p.): 69.0 ± 13.2
Total activity (Balb/c mice; 5.0 mg/kg i.p.): 69.0 ± 13.2
Central activity (crossings) (Balb/c mice; 50.0 mg/kg i.p.): 0.7 ± 0.5
Peripheral activity (crossings) (Balb/c mice; 50.0 mg/kg i.p.): 27.7 ± 6.2
Total activity (Balb/c mice; 50.0 mg/kg i.p.): 28.4 ± 6.7
effect on the behavior (locomotor activity) of Balb/c mice in open-field test, in words (Balb/c mice): able to activate the behavior of Balb/c mice
effect on locomotor activity of C57B1/6 mice in open-field test, in words (C57B1/6 mice): without any changes in locomotor activity

CCN(CC)CCSc1nc2ccccc2n1Cc1ccccc1 [XIX, 1-Benzyl-2-[2-(diethylarnino)ethylthio]benzimidazole]
effect on parameters of hemodynamics and heart activity, in words (cats): no effects on the parameters of hemodynamics and heart activity
effect on the behavior (locomotor activity) of Balb/c mice in open-field test, in words (Balb/c mice): inhibited the locomotor activity

CCOc1ccc2nc(SCCN3CCCCC3)[nH]c2c1 [XI]
effect on parameters of hemodynamics and heart activity, in words (cats): no effects on the parameters of hemodynamics and heart activity
effect on the behavior (locomotor activity) of Balb/c mice in open-field test, in words (Balb/c mice): neither activatory nor inhibitory effects

Cc1cc2nc(SCCCN(C)C)[nH]c2cc1C [XVI, 2-[3-(Dimethylamino)propylthio]-5,6-dimethylbenzimidazole]
effect on parameters of hemodynamics and heart activity, in words (cats): no effects on the parameters of hemodynamics and heart activity
effect on the behavior (locomotor activity) of Balb/c mice in open-field test, in words (Balb/c mice): inhibited the locomotor activity

Cc1cc2nc(SCCCN3CCN(C)CC3)[nH]c2cc1C [XVII, 2-[3-(4-Methylpyperazino)propylthio]-5,6-dimethylbenzimidazole]
effect on heart rate, in words (cats): small and short bradycardia
Central activity (crossings) (Balb/c mice; 0.1 mg/kg i.p.): 0.5 ± 0.5
Number of defecations (Balb/c mice; 0.1 mg/kg i.p.): 2.0 ± 0.8
Peripheral activity (crossings) (Balb/c mice; 0.1 mg/kg i.p.): 4.0 ± 1.0
Total activity (Balb/c mice; 0.1 mg/kg i.p.): 4.5 ± 1.5
Number of defecations (Balb/c mice; 1.0 mg/kg i.p.): 0.1 ± 0.1
Peripheral activity (crossings) (Balb/c mice; 1.0 mg/kg i.p.): 7.7 ± 1.9
effect on the behavior (locomotor activity) of Balb/c mice in open-field test, in words (Balb/c mice): inhibited the locomotor activity

CN(C)CCSc1nc2ccccc2n1Cc1ccccc1 [XVIII, 1-Benzyl-2-[2-(dimethylamino)ethylthuo]benzimidazole]
effect on parameters of hemodynamics and heart activity, in words (cats): no effects on the parameters of hemodynamics and heart activity

CCN(CC)CCSc1nc2ccccc2n1CCc1ccccc1 [XXI, 1-(β-Phenylethyl)-2-[2-(diethylamino)ethylthio]benzimidazole]
effect on heart rate, in words (cats): small and short bradycardia
effect on the behavior (locomotor activity) of Balb/c mice in open-field test, in words (Balb/c mice): neither activatory nor inhibitory effects

c1ccc(CCn2c(SCCN3CCOCC3)nc3ccccc32)cc1 [XXII]
effect on parameters of hemodynamics and heart activity, in words (cats): no effects on the parameters of hemodynamics and heart activity
effect on the behavior (locomotor activity) of Balb/c mice in open-field test, in words (Balb/c mice): neither activatory nor inhibitory effects
